A word on the IC50: it is the midpoint of a concentration-inhibition curve.

Each structure is given as a SMILES string. Read-outs that look alike come from different tables or passages of the source.

For series [1], the system named is HeLa (human cervical adenocarcinoma). The conditions noted are these: previously published result, ref [19]; cited from earlier work.
In series [2] the test system is MRC-5 (human fetal lung fibroblasts). Further details: method as in PMID 36677600. The conditions noted are these: previously published result, ref [19]; cited from earlier work.
For series [3], the system named is THP-1 (acute monocytic leukemia). Further details: method as in PMID 36677600. The conditions noted are these: previously published result, ref [19]; cited from earlier work.
Series [4] concerns HL-60 (acute promyelocytic leukemia). More on the design: method as in PMID 36677600. The conditions noted are these: previously published result, ref [19]; cited from earlier work.
Series [5] relates to HuT78 (T-cell lymphoma). Further details: method as in PMID 36677600. The settings on record: previously published result, ref [19]; cited from earlier work.
In series [6] the test system is CaCo-2 (human colorectal adenocarcinoma). The conditions noted are these: previously published result, ref [19]; cited from earlier work.
Series [7] relates to P. falciparum Dd2 (multiresistant), erythrocytic stage. As to the kind of experiment: Antiplasmodial HRP2 assay, PfDd2. The format is cell-based, Plasmodium falciparum. The settings on record: Plasmodium falciparum, DD2, 72 h; chloroquine-resistant strain, three days incubation, HRP2-ELISA, mean ± SD, n ≥ 2; read-out: IC50 PfDd2. Here is the method: (§1) Method used to evaluate the antiplasmodial activity of quinoline–benzimidazole hybrids against two P. falciparum strains, chloroquine-sensitive (Pf3D7) and chloroquine-resistant (PfDd2), was previously described. […] Chloroquine was used as a positive control.
(§2) In brief, 96-well plates were pre-coated with the tested compounds at 1:3 dilution before ring-stage parasites were added to the complete culture medium at a hematocrit of 1.5% and a parasitemia of 0.05%. […] All compounds were analyzed in duplicate in at least two independent experiments. The IC50 was determined by nonlinear regression analysis of the logarithmic concentration-response curves using the drc package v3.0-1 of R v4.1.0 [56].
(ELISA stands for enzyme-linked immunosorbent assay.)

Series [8] relates to THP-1 (acute monocytic leukemia). As to the kind of experiment: Antiproliferative MTT assay, THP-1. The format is cell-based, human. The conditions noted are these: Homo sapiens, THP-1, 72 h, mean ± SD of three experiments. The protocol:
(§3) The effect of the new synthesized compounds was tested on five human tumor cell lines, HeLa (human cervical adenocarcinoma; from ATCC), CaCo-2 (human colorectal adenocarcinoma), HL-60 (acute promyelocytic leukemia), HuT78 (T-cell lymphoma), and THP-1 (acute monocytic leukemia), as well as one non-tumor cell line, MRC-5 (human fetal lung fibroblasts). The MRC-5 cells were used between 24 and 26 passages. The cells were cultured in two different types of media: DMEM (Gibco Thermo Fisher Scinetific Inc., Runcorn, UK) and RPMI 1640 (Gibco, Thermo Fisher Scinetific Inc., UK). Both media were supplemented with 2 mM glutamine, fetal bovine serum (10%; heat inactivated), and antibiotics (100 U penicillin and 0.1 mg streptomycin). RPMI 1640 was additionally supplemented with 10 mM HEPES and 1 mM sodium pyruvate. Cells growing in a monolayer were cultured in DMEM, while cells growing in suspension were cultured in RPMI 1640. Cells were grown in humidified atmosphere under the conditions of 37 °C/5% CO2 gas in a CO2 incubator (IGO 150 CELLlife^TM, JOUAN, Thermo Fisher Scientific, Waltham, MA, USA).
(§4) Growth-inhibitory activity was assessed using a slightly modified procedure based on the National Cancer Institute’s protocol. Briefly, cells were seeded in 96-well microtiter plates and incubated for 24 h. They were then treated with 10^−7 to 10^−4 M concentrations of the tested compounds for an additional 72 h. After the treatment period, the effects of the tested compounds on the growth rate of the cells were examined using the MTT assay. Absorbance was measured at 595 nm using a microplate reader. The IC50 value, which represents a 50% inhibition of cell growth, and QC calculation were performed using the GraphPadPrism software (La Jolla, USA), v. 5.03. and Excel software, Office 365. The selectivity index was calculated according to the following formula: SI=IC50 value of normal cell line/IC50 value of cancer cell line
(§5) The effect of each concentration was analyzed by plotting the logarithm of the concentration of the evaluated compound against the corresponding percentage inhibition value using least squares.
(Tetrazolium assays rely on reduction of a dye to a coloured formazan, in cell work by metabolically active cells.)

In series [9] the test system is HeLa (human cervical adenocarcinoma). As to the kind of experiment: Antiproliferative MTT assay, HeLa. The conditions noted are these: Homo sapiens, HeLa, 72 h, mean ± SD of three experiments. In kind it is cell-based. Here is the method: as §3, §4, §5
Series [10] concerns HuT78 (T-cell lymphoma). Nature of the series: Antiproliferative MTT assay, Hut78. The format is cell-based, human. The settings on record: Homo sapiens, HuT78, 72 h, mean ± SD of three experiments. Here is the method: as §3, §4, §5
The test system of series [11] is CaCo-2 (human colorectal adenocarcinoma). Nature of the series: Antiproliferative MTT assay, CaCo-2. The settings on record: Homo sapiens, Caco-2, 72 h, mean ± SD of three experiments. The format is cell-based. Here is the method: as §3, §4, §5
For series [12], the system named is P. falciparum 3D7 (CQ-susceptible), erythrocytic stage. As to the kind of experiment: Antiplasmodial HRP2 assay, Pf3D7. In kind it is cell-based, Plasmodium falciparum. The settings on record: Plasmodium falciparum, 3D7, 72 h; chloroquine-sensitive strain, three days incubation, HRP2-ELISA, mean ± SD, n ≥ 2; read-out: IC50 Pf3D7. The protocol: as §1, §2
The nature of series [13]: Antiproliferative MTT assay, whole panel of cell lines. In kind it is cell-based. The conditions noted are these: human, range over the cell lines tested, read-out: IC50 (cytotoxicity) across non-tumor and tumor cell lines. Here is the method:
as §3, with “Cells growing in a monolayer were cultured in DMEM, while cells growing in suspension were cultured in RPMI 1640. Cells were grown in humidified atmosphere under the conditions of 37 °C/5% CO2 gas in a CO2 incubator (IGO 150 CELLlife^TM, JOUAN, Thermo Fisher Scientific, Waltham, MA, USA).” left out
Growth-inhibitory activity was assessed using a slightly modified procedure based on the National Cancer Institute’s protocol. […] Absorbance was measured at 595 nm using a microplate reader. […] The selectivity index was calculated according to the following formula: SI=IC50 value of normal cell line/IC50 value of cancer cell line
as §5

The subject of series [14] is MRC-5 (human fetal lung fibroblasts). As to the kind of experiment: Antiproliferative MTT assay, MRC-5. In kind it is cell-based. The conditions noted are these: Homo sapiens, MRC5, non-tumor cell line, 72 h, mean ± SD of three experiments. The protocol:
as §3, §4, §5

In series [15] the test system is HL-60 (acute promyelocytic leukemia). As to the kind of experiment: Antiproliferative MTT assay, HL-60. In kind it is cell-based, human. The conditions noted are these: Homo sapiens, HL-60, 72 h, mean ± SD of three experiments. The protocol:
as §3, §4, §5

`O=c1[nH]cc(F)c(=O)[nH]1` [Compound 5-FU, 5-fluorouracil]: the 50% inhibitory concentration (IC50) is 8.2 µM in series [1]; 54.1 µM in [2]; > 100 µM in series [3]; 76.4 µM in series [4]; > 100 µM in the series on HuT78 (T-cell lymphoma) [5]; 5.9 µM in series [6].

`COc1cc(-c2nc3ccc(C(=N)NC4CCCC4)cc3[nH]2)ccc1OCCCNc1ccnc2cc(Cl)ccc12` [Compound 15d]: the IC50 in series [7] is 0.0229 ± 0.0043 µM; in series [8], 29.6 ± 0.3 µM; in series [9] it was > 100 µM; with HuT78 (T-cell lymphoma) [10] it was 12.8 ± 5.5 µM; in [11], > 100 µM; in series [12], 0.0287 ± 0.0094 µM. For the same molecule, the IC50 in series [14] worked out at 95.2 ± 9.7 µM; in [15] it was 19.5 ± 1.1 µM. Further, the IC50 at 72 h in [13] is 12.8 to 100 µM.

Source of the values: PMC11243327, “Design, Synthesis, Antitumor, and Antiplasmodial Evaluation of New 7-Chloroquinoline–Benzimidazole Hybrids” (Molecules, 2024).
